PMC11352273, “The Proapoptotic Action of Pyrrolidinedione–Thiazolidinone Hybrids towards Human Breast Carcinoma Cells Does Not Depend on Their Genotype” (Cancers, 2024)

Tests used:
MCF-7 cells = experiment: JC-1 mitochondrial membrane potential flow cytometry; assay type: cell-based, human; settings: MCF-7, 24 h
Description: (§1) The JC-1 MitoScreen kit (BD Pharmigen, San Diego, CA, USA) and a flow cytometer (BD FACSCanto II) were used to detect the decrease in mitochondrial membrane potential (MMP, ΔΨm) under the action of the studied compounds. […] Following washing, the cells were further suspended in 0.5 mL of buffer with 10 µg/mL JC-1 and incubated for 15 min at room temperature in the dark. Then, cells were washed twice with buffer, resuspended in 300 µL PBS, and analyzed.

MDA-MB-231 cells = experiment: as above; assay type: cell-based, human; settings: MDA-MB-231, 24 h
Description: as §1

caspase 9 in MCF-7 cells = experiment: Caspase-9 activity, FAM-FLICA flow cytometry; assay type: cell-based, human; settings: MCF-7, 24 h
Description: (§3) The assay was performed following the manufacturer’s instructions and the previously described methodology [25]. […] The cells were gathered, rinsed twice with chilled PBS, and reconstituted in an Apoptosis Wash Buffer. Then, 10 µL of freshly diluted FLICA solution was added to 290 µL of cell suspension and incubated for an hour at 37 °C. Following two rounds of washing with 2 mL of Apoptosis Wash Buffer, the cells were centrifuged, resuspended in 300 µL of the buffer, and then analyzed [25].

caspase 8 in MCF-7 cells = experiment: Caspase-8 activity, FAM-FLICA flow cytometry; assay type: cell-based, human; settings: MCF-7, 24 h
Description: as §3

[1] = system: caspase 8 in MDA-MB-231 cells; experiment: Caspase-8 activity, FAM-FLICA flow cytometry; assay type: cell-based, human; settings: MDA-MB-231, 24 h
Description: as §3

[2] = system: caspase 10 in MCF-7 cells; experiment: Caspase-10 activity, FAM-FLICA flow cytometry; assay type: cell-based, human; settings: MCF-7, 24 h
[3] = system: caspase 10 in MDA-MB-231 cells; experiment: Caspase-10 activity, FAM-FLICA flow cytometry; assay type: cell-based, human; settings: MDA-MB-231, 24 h
Beclin-1 in MCF-7 cells = experiment: Beclin-1 ELISA in cell lysates; assay type: cell-based, human; settings: MCF-7, 24 h, 2 μM; untreated control 4.08 ng/mL
Description: (§2) In order to determine the Beclin-1 concentration in the cell lysates, the SimpleStep ELISA (Abcam, Cambridge, UK) Kit was used. MMP-2, MMP-9, and ICAM-1 concentrations were measured in culture supernatants using high-sensitivity human SimpleStep ELISA kits (Abcam, Cambridge, UK) according to the manufacturer’s protocols. The LC3B ELISA kit (BT LAB, Shanghai, China) was used to check the protein concentration in cell lysates from analyzed breast cancer cells. The procedure for preparing the samples was shown previously.

[4] = system: Beclin-1 in MDA-MB-231 cells; experiment: Beclin-1 ELISA in cell lysates; assay type: cell-based, human; settings: MDA-MB-231, 24 h, 2 μM; untreated control 11.79 ng/mL
Description: as §2

LC3B in MCF-7 cells = experiment: LC3B ELISA in cell lysates; assay type: cell-based, human; settings: MCF-7, 24 h, compound concentration not stated; control 574.84 ng/mL
Description: as §2

LC3B in MDA-MB-231 cells = experiment: LC3B ELISA in cell lysates; assay type: cell-based, human; settings: MDA-MB-231, 24 h, 2 μM; control 698.25 ng/mL
Description: as §2

[5] = system: MDA-MB-231, 4T1, MCF-7, T-47D, and HCC1954 cells; experiment: MTT assay, summary over breast carcinoma cell lines; assay type: cell-based
Description: The MCF-7 and MDA-MB-231 cells were cultured in the DMEM medium containing 10% of the FBS, HCC1954, T-47D, and 4T1 cells in the RPMI-1640 medium with the addition of 10% of the FBS, and MCF-10A cells in MEGM Mammary Epithelial Cell Growth Medium BulletKit supplemented with penicillin/streptomycin cocktail and 5% of horse serum. The cells were cultured in a […] atmosphere at 5% CO2 and 37 °C. After trypsinization, cells were counted using a Scepter 3.0 handheld automated cell counter (Millipore, Burlington, MA, USA).
The MTT test was used to assess the metabolic activity of cells treated with the investigated substances following the Sigma-Aldrich manufacturer’s instructions. Briefly, compounds were added in 100 µL of the cultural medium, and cells were incubated for the next 24 and 48 h. Doxorubicin was used as a reference drug. The DMSO was added to dissolve the crystals of formazan. We used the ThermoScientific Evolution 201 UV–VIS spectrophotometer (ThermoFisher Scientific, Waltham, MA, USA) to measure the absorbance of formazan at 570 nm. The initial value of the relative number of cells in control (under 0.1% of the DMSO) was accepted as 100%. We used GraphPad Prism Version 9 to calculate the half-maximal inhibition concentration (IC50) of the studied compounds (the concentration of the drug that reduced cell viability by 50%).

[6] = system: MCF-7, MDA-MB-231, and HCC1954 cell lines; experiment: [3H]-thymidine incorporation assay, summary over cancer cell lines; assay type: cell-based; settings: Homo sapiens; 24 h, MCF-7, MDA-MB-231, HCC1954; read-out: IC50 of DNA synthesis inhibition, range over cell lines
Description: Following a 24 h cell treatment, the incorporation of [^3H]-thymidine into the DNA of the breast tumor and normal cells was used to measure the antiproliferative activity of Les-6287. The MCF-7, MDA-MB-231, HCC1954, and MCF-10A cells were seeded into six-well plates (density 3 × 10^5 cells/well) and cultured for 24 h. Then, they were incubated under the same conditions for the next 24 h with a growth medium containing the tested compounds and reference drug (doxorubicin) at different concentrations (1, 2.5, 5, 10, 50 µM). After 24 h, the medium was changed to a fresh one without FBS. A total of 0.5 µCi of tritium-labeled thymidine (specific activity: 7 Ci/mmol) was added to cells for 4 h. The cells were washed with 1 mL of 0.05 M Tris-HCl buffer pH 7.4 containing 0.11 M NaCl and 1 mL of 5% trichloroacetic acid (TCA). Each well was filled with 1 mL of a 0.1 M NaOH solution containing 1% SDS to complete cell lysis. After 5 min, the acquired cell lysates were put into scintillation vials and pre-filled with two milliliters of scintillation liquid. The Scintillation Counter 1900 TR, TRI-CARB (Packard, Perkin Elmer, Inc., San Jose, CA, USA) was used to record the results. The effect of compounds on DNA synthesis was expressed as % of the control (non-treated cells).

[7] = system: normal human keratinocytes (HaCaT); parameters: method as in PMID 37579525; settings: cited from earlier work
[8] = system: caspase 3/7 in MCF-7 cells; experiment: Caspase-3/7 activity, FAM-FLICA flow cytometry; settings: MCF-7, 24 h
Description: as §3

[9] = system: caspase 3/7 in MDA-MB-231 cells; experiment: Caspase-3/7 activity, FAM-FLICA flow cytometry; settings: MDA-MB-231, 24 h
Description: as §3

In the case of `O=C1CC(N2C(=O)C(=CC(Cl)=Cc3ccc([N+](=O)[O-])cc3)SC2=S)C(=O)N1c1ccc(O)cc1` (centres unmarked) [Les-6287, 1-(4-hydroxyphenyl)-3-[5-[2-chloro-3-(4-nitrophenyl)prop-2-enylidene]-4-oxo-2-thioxothiazolidine-3-yl]pyrrolidine-2,5-dione], the “cells with decreased mitochondrial membrane potential (ΔΨm)” value (MCF-7 cells; 1 µM) is reported as 21.00 ± 1.20%, the “cells with decreased mitochondrial membrane potential (ΔΨm)” value (MCF-7 cells; 1.5 µM) is reported as 38.85 ± 3.46% and the “cells with decreased mitochondrial membrane potential (ΔΨm)” value (MDA-MB-231 cells; 1 µM) is reported as 3.75 ± 1.34%. For the same compound, the “cells with decreased mitochondrial membrane potential (ΔΨm)” value (MDA-MB-231 cells; 1.5 µM) was 17.85 ± 3.46%, the “cells with active caspase 9” value (caspase 9 in MCF-7 cells; 1 µM) was 24.40 ± 0.98% and the “cells with active caspase 9” value (caspase 9 in MCF-7 cells; 1.5 µM) was 36.45 ± 1.05%. For the same compound, the “cells with active caspase 8” value (caspase 8 in MCF-7 cells; 1 µM) was 11.08 ± 1.30%, the “cells with active caspase 8” value (caspase 8 in MCF-7 cells; 1.5 µM) was 17.78 ± 5.19% and the “cells with active caspase 8” value ([1]; 1 µM) was 18.23 ± 0.62%. The “cells with active caspase 8” value ([1]; 1.5 µM) was 23.50 ± 1.03%, the “cells with active caspase 10” value ([2]; 1 µM) was 11.58 ± 2.30% and the “cells with active caspase 10” value ([2]; 1.5 µM) was 20.50 ± 1.49%. The “cells with active caspase 10” value ([3]; 1 µM) was 14.48 ± 2.53%, the “cells with active caspase 10” value ([3]; 1.5 µM) was 19.78 ± 0.80% and the “concentration of Beclin-1” value (Beclin-1 in MCF-7 cells) was 2.78 ng/mL. The “concentration of Beclin-1” value [4] was 9.83 ng/mL, the “concentration of LC3B” value (LC3B in MCF-7 cells) was 537.74 ng/mL and the “concentration of LC3B” value (LC3B in MDA-MB-231 cells) was 483.50 ng/mL. For the same compound, the IC50 ([5]; Breast carcinoma cell, 24 and 48 h, all five cancer cell lines and all three hybrids together, read-out: IC50, range over breast carcinoma cell lines) was 1.37 to 21.9 µM, the “selectivity index (SI = IC50 for MCF-10A/IC50 for human breast tumor cells)” value ([5]; range over cell lines and time points) was 24.10–47.13 and the IC50 [6] was 2.32 to 3.67 µM. The IC50 [7] was over 73.6 µM, the “cells with active caspase 3/7” value ([8]; 1 µM) was 21.38 ± 1.50% and the “cells with active caspase 3/7” value ([8]; 1.5 µM) was 47.08 ± 3.40%. The “cells with active caspase 3/7” value ([9]; 1 µM) was 17.20 ± 1.58% and the “cells with active caspase 3/7” value ([9]; 1.5 µM) was 26.63 ± 8.32%.
